A word on the IC50: it is the midpoint of a concentration-inhibition curve.

This is an account of results in patent US10316039B2, “P2X3 and/or P2X2/3 compounds and methods” (Asana Biosciences, LLC, priority 2013, dated 2019).

One assay has as its target T1, P2X3 (UniProt P56373).
T1 sequence (P56373 1-397): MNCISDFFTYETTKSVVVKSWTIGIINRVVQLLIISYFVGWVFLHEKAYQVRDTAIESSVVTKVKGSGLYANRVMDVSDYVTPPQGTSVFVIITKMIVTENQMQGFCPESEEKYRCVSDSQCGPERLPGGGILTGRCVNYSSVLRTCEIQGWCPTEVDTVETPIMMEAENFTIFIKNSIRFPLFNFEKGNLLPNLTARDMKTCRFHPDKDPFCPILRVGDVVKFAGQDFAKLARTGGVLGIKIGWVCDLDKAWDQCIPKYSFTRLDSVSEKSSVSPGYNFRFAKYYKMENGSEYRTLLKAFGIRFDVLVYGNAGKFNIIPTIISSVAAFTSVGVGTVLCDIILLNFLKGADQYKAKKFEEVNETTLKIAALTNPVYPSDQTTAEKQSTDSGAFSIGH
Briefly: P2X3 FLIPR intracellular calcium assay. To be noted: agonist at EC75, species (human or rat) not given. In kind it is cell-based. The gist of the method:
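Human P2X3-HEK, human P2X2/3-TRex293, rat P2X2/3-TRex293 or rat P2X3 TRex-CHO cells loaded with Calcium 4 dye (1.8 mM probenecid, pH 7.4).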
In general terms: Calcium assays in cells follow changes in intracellular calcium, usually with a dye or a luminescent sensor.

A further assay concerns the target T2, P2X2/3 (Homo sapiens, UniProt P56373+Q9UBL9).
T2 sequence (Q9UBL9 1-471): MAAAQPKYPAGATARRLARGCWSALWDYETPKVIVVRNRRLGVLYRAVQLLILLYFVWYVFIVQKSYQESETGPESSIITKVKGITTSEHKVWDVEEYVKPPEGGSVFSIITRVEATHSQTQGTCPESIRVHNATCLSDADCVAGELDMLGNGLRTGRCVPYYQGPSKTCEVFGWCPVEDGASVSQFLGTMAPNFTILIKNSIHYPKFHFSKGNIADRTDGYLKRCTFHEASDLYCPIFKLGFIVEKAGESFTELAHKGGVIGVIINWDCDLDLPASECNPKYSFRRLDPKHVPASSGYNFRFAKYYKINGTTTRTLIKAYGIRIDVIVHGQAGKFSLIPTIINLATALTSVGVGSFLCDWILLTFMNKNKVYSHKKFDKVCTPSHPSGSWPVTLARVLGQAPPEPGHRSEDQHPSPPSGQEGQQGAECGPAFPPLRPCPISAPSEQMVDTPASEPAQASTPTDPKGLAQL
T2 sequence (P56373 1-397): T1 sequence (P56373 1-397)
Briefly: P2X2/3 FLIPR intracellular calcium assay. In kind it is cell-based. As to conditions: agonist at EC75, species (human or rat) not given. A digest of the protocol:
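Stable human P2X2/3 TRex293 cells (doxycycline-induced) loaded with Calcium 4 dye; compounds, 11-point half-log series from 2 mM top stock, preincubated 15 min at RT in HBSS/HEPES pH 7.4 with 1.8 mM CaCl2. Agonist added at EC75; fluorescence change versus no-compound wells gave IC50.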

As to `Cc1ccc(CNC(=O)c2cc(-n3nncc3C(C)(F)F)c3ncc(-c4ncc(C)s4)n3c2)cn1` [Example 87], the IC50 at P2X3 and at P2X2/3 was 100 to 1000 nM in each case.
`CCc1cnnn1-c1cc(C(=O)N[C@H](C)c2nc(C)no2)cn2c(-c3ccc(C)s3)cnc12` [Example 88]: the values for the IC50 on P2X3 and at P2X2/3 were > 10000 nM and 1 to 100 nM, respectively.
Taken in the same sequence, the figures for `Cc1ccc(-c2cnc3c(Nc4ccccc4)cc(C(=O)NCc4ccn(C)c(=O)c4)cn23)s1` [Example 90] were 1 to 100 nM and 1000 to 10000 nM.
Taken in the same sequence, the figures for `Cc1ccc(CNC(=O)c2cc(Nc3ccccc3)c3ncc(-c4ccc(C)s4)n3c2)cn1` [Example 91] were 100 to 1000 nM and 1000 to 10000 nM.
Taken in the same sequence, the figures for `Cc1ccc(-c2cnc3c(Nc4nccs4)cc(C(=O)N[C@@H](C)c4nnc[nH]4)cn23)s1` [Example 92] were 100 to 1000 nM and 1000 to 10000 nM.
As for `Cc1ccc(-c2cnc3c(Nc4nccs4)cc(C(=O)NCc4ccn(C)c(=O)c4)cn23)s1` [Example 93], the figures for the half-inhibitory concentration (IC50) at P2X3 and at P2X2/3 were 100 to 1000 nM and 1000 to 10000 nM, respectively.
Taken in the same sequence, the figures for `Cc1ccc(-c2cnc3c(Nc4ncc(C)s4)cc(C(=O)N[C@@H](C)c4nnc[nH]4)cn23)s1` [Example 94] were 1 to 100 nM and 1000 to 10000 nM.
Taken in the same sequence, the figures for `Cc1ccc(-c2cnc3c(Nc4ccc(F)cc4)cc(C(=O)N[C@@H](C)c4nnc[nH]4)cn23)s1` [Example 95] were 1 to 100 nM and > 10000 nM.
Taken in the same sequence, the figures for `COc1ccccc1Nc1cc(C(=O)N[C@@H](C)c2nnc[nH]2)cn2c(-c3ccc(C)s3)cnc12` [Example 96] were 100 to 1000 nM and 100 to 1000 nM.
For the compound `Cc1ccc(CNC(=O)c2cc(-c3cnn(C)c3)c3ncc(-c4ccc(C)s4)n3c2)cn1` [Example 98], the 50% inhibitory concentration (IC50) lay within 1000 to 10000 nM at P2X3 and 100 to 1000 nM at P2X2/3.
The corresponding values for `Cc1ccc(-c2cnc3c(-c4cnn(C)c4)cc(C(=O)NCc4ccn(C)c(=O)c4)cn23)s1` [Example 99] are 1 to 100 nM and 1000 to 10000 nM.
The corresponding values for `Cc1ccc(-c2cnc3c(-c4ccnn4C)cc(C(=O)N[C@@H](C)c4nnc[nH]4)cn23)s1` [Example 100] are 1 to 100 nM and 100 to 1000 nM.
The corresponding values for `Cc1ccc(-c2cc(C(=O)N[C@@H](C)c3nnc[nH]3)cn3c(-c4ccc(C)s4)cnc23)s1` [Example 101] are 1 to 100 nM and 1 to 100 nM.
Regarding `Cc1ccc(-c2cnc3c(-c4c(C)noc4C)cc(C(=O)N[C@@H](C)c4nnc[nH]4)cn23)s1` [Example 102], the IC50 on P2X3 and on P2X2/3 was 1 to 100 nM in each case.
Turning to `CCn1nccc1-c1cc(C(=O)N[C@@H](C)c2nnc[nH]2)cn2c(-c3ccc(C)s3)cnc12` [Example 103], the results for the IC50 at P2X3 and on P2X2/3 were 1 to 100 nM and 100 to 1000 nM, respectively.
Taken in the same sequence, the figures for `Cc1ccc(-c2cnc3c(-c4cnn(CC5CC5)c4)cc(C(=O)N[C@@H](C)c4nnc[nH]4)cn23)s1` [Example 104] were 1 to 100 nM and 100 to 1000 nM.
Taken in the same sequence, the figures for `Cc1ccc(-c2cnc3c(-c4cnn(CCF)c4)cc(C(=O)N[C@@H](C)c4nnc[nH]4)cn23)s1` [Example 105] were 1 to 100 nM and 100 to 1000 nM.
Taken in the same sequence, the figures for `Cc1ccc(CNC(=O)c2cc(-c3c(C)noc3C)c3ncc(-c4ccc(C)s4)n3c2)cn1` [Example 106] were > 10000 nM and 1 to 100 nM.
Take `Cc1noc(C)c1-c1cc(C(=O)N[C@@H](C)c2nnc[nH]2)cn2c(-c3ccc(Cl)s3)cnc12` [Example 107]: the concentration for half-maximal inhibition (IC50) on P2X3 and at P2X2/3 was 1 to 100 nM throughout.
`CC[C@H](NC(=O)c1cc(-c2c(C)noc2C)c2ncc(-c3ccc(C)s3)n2c1)c1nnc[nH]1` [Example 108]: the IC50 at P2X3 and on P2X2/3 was 1 to 100 nM each time.
As for `Cc1cnc(-c2cnc3c(-c4c(C)noc4C)cc(C(=O)N[C@@H](C)c4nnc[nH]4)cn23)s1` [Example 109], the results for the IC50 on P2X3 and on P2X2/3 were 1 to 100 nM and 100 to 1000 nM, respectively.
